# Source: patent US8748458B2, “Scriptaid isosteres and their use in therapy” (Karus Therapeutics Limited, priority 2009, dated 2014)
# What was measured:
# [1] = test system: Total HDAC (HeLa Nuclear Extracts); experiment: Total HDAC inhibition (HeLa nuclear extracts); format: biochemical
# [2] = test system: MCF7 Breast Tumour Cell; experiment: MCF7 Breast Tumour Cell Proliferation Inhibition; format: cell-based; details: Homo sapiens; MCF7 cells
# [3] = target: HDAC1 (Homo sapiens (Human), UniProt Q13547); experiment: HDAC1 inhibition; format: biochemical
# [4] = target: HDAC9 (Homo sapiens (Human), UniProt Q9UKV0); experiment: HDAC9 inhibition; format: biochemical
# [5] = target: HDAC6 (Homo sapiens (Human), UniProt Q9UBN7); experiment: HDAC6 inhibition; format: biochemical
# [6] = target: HDAC2 (Homo sapiens (Human), UniProt Q92769); experiment: HDAC2 inhibition; format: biochemical
# [7] = target: HDAC5 (Homo sapiens (Human), UniProt Q9UQL6); experiment: HDAC5 inhibition; format: biochemical
# [8] = target: HDAC3 (Homo sapiens (Human), UniProt O15379); experiment: HDAC3 inhibition; format: biochemical
# [9] = target: HDAC4 (Homo sapiens (Human), UniProt P56524); experiment: HDAC4 inhibition; format: biochemical
# [10] = target: HDAC10 (Homo sapiens (Human), UniProt Q969S8); experiment: HDAC10 inhibition; format: biochemical
# [11] = target: HDAC11 (Homo sapiens (Human), UniProt Q96DB2); experiment: HDAC11 inhibition; format: biochemical
# [12] = target: HDAC8 (Homo sapiens (Human), UniProt Q9BY41); experiment: HDAC8 inhibition; format: biochemical
# [13] = test system: TNFα; experiment: TNFα inhibition (LPS-stimulated human PBMCs); format: cell-based; details: PBMC
# Sequence of HDAC6 (Q9UBN7 whole entry, species assumed): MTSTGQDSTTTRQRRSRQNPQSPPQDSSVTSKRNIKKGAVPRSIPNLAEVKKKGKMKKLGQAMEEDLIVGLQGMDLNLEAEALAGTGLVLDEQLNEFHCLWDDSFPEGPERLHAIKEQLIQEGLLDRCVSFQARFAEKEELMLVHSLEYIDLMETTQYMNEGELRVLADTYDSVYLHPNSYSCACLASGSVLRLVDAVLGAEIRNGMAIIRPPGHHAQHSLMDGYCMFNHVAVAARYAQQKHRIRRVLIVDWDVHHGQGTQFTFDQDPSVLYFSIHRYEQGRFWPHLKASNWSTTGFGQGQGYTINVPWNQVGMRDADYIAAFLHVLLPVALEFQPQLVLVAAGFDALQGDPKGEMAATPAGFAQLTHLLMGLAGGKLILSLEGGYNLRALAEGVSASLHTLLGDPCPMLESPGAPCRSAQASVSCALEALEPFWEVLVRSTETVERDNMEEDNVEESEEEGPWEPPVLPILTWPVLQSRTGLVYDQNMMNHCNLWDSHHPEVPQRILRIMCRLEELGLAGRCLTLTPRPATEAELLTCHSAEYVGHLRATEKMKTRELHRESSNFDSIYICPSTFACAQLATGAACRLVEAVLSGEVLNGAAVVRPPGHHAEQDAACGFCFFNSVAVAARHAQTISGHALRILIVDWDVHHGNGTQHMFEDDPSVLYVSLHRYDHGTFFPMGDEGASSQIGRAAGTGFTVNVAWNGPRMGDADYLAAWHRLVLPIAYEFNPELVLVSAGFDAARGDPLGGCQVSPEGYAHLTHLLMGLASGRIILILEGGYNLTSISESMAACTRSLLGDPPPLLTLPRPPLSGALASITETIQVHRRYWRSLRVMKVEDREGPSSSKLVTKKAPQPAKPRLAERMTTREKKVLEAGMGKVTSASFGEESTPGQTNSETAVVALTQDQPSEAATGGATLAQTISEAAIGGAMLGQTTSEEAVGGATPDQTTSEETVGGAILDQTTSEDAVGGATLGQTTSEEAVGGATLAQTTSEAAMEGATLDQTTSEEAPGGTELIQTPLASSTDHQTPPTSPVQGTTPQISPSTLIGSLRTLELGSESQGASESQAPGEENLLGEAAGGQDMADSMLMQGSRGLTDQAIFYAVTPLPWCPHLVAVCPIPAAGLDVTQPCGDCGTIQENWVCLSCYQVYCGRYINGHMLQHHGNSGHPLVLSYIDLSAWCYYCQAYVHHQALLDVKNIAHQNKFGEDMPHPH
# Sequence of HDAC9 (Q9UKV0 whole entry, species assumed): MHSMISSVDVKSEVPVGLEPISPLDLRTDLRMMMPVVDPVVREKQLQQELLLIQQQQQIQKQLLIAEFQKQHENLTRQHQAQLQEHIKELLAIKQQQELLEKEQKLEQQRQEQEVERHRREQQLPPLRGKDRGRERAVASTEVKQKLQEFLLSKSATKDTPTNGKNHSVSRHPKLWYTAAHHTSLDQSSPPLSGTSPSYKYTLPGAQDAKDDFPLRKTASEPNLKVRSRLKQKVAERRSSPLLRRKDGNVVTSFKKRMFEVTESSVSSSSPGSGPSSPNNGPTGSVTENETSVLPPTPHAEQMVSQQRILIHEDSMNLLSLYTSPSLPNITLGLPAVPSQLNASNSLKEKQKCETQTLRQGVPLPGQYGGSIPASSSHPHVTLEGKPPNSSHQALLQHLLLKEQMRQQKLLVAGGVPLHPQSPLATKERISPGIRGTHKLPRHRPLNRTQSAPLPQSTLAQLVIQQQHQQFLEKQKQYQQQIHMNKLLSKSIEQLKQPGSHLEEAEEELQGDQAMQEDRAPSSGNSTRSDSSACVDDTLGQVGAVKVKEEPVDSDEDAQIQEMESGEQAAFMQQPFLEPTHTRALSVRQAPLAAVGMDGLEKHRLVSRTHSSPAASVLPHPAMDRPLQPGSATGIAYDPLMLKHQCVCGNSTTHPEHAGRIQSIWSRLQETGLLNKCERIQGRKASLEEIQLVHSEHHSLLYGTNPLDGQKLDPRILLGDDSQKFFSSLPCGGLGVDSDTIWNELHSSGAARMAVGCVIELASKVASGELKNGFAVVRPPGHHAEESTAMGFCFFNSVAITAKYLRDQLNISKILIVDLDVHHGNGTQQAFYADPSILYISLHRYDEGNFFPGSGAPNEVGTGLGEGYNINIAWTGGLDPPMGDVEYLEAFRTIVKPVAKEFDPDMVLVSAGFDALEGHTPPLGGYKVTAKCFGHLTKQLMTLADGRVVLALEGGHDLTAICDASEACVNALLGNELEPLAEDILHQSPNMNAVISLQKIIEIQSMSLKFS
# Sequence of HDAC2 (Q92769 whole entry, species assumed): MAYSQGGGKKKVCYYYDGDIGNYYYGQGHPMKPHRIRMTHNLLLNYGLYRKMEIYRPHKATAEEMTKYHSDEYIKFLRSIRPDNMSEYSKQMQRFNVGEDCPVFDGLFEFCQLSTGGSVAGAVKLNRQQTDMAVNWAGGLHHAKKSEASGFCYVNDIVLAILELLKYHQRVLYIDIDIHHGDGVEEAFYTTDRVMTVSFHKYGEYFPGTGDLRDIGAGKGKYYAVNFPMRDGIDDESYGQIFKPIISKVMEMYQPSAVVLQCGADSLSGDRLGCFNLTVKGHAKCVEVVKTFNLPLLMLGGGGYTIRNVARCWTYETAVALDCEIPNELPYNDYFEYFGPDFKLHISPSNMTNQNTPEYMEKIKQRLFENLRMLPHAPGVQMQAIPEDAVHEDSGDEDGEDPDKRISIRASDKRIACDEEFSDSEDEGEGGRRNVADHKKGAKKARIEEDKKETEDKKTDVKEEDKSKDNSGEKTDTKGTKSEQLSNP
# Sequence of HDAC1 (Q13547 whole entry, species assumed): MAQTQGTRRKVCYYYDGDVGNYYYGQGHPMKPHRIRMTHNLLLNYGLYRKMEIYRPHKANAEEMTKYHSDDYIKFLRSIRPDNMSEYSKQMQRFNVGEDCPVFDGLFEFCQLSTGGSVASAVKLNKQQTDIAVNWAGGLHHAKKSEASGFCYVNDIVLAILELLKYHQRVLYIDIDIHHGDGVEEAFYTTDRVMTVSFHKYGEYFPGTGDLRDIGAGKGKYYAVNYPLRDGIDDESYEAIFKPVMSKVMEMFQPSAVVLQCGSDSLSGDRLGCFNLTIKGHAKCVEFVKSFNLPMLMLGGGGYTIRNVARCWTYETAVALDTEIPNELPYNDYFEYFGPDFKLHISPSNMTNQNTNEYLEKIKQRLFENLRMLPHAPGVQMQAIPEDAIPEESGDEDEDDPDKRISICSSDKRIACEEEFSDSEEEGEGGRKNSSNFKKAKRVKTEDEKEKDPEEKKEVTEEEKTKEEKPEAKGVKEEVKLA
# Sequence of HDAC4 (P56524 whole entry, species assumed): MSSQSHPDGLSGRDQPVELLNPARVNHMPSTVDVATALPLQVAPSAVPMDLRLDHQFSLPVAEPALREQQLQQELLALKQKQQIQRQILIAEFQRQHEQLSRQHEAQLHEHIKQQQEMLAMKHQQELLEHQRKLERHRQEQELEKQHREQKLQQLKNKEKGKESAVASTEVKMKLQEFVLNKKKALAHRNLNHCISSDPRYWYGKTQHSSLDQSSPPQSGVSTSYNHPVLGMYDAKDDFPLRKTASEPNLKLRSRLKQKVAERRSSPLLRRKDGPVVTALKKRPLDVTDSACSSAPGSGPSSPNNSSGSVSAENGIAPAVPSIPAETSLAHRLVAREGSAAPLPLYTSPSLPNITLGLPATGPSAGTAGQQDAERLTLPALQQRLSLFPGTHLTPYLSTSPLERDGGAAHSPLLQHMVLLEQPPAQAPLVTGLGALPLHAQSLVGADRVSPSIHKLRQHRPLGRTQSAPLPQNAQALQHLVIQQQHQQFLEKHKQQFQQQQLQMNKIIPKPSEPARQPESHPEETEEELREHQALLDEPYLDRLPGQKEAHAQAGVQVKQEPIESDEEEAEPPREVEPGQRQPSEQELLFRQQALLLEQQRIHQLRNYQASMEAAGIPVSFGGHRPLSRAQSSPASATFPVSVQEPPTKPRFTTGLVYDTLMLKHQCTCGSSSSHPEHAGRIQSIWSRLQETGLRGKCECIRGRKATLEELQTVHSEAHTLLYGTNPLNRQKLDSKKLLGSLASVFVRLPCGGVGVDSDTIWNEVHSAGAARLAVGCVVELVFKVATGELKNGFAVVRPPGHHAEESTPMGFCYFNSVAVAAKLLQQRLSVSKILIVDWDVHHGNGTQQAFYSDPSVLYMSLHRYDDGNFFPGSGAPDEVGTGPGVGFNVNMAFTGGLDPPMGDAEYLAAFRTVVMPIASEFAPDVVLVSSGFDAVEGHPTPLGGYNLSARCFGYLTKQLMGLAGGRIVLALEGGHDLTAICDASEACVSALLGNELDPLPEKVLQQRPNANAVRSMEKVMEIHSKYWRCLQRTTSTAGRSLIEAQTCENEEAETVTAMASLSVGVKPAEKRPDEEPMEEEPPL
# Sequence of HDAC3 (O15379 whole entry, species assumed): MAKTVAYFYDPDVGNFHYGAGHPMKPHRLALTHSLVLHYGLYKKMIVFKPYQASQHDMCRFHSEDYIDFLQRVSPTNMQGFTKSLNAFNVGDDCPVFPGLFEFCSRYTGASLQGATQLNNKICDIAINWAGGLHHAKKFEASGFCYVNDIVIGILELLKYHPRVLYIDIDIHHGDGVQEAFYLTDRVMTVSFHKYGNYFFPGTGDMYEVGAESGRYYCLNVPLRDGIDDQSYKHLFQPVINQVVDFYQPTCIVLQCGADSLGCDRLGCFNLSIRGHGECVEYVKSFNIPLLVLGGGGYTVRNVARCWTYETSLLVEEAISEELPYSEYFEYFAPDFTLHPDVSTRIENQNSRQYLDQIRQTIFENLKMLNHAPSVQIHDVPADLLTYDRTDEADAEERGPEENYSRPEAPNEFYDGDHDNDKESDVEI
# Sequence of HDAC3 (Q9Y618 395-489 partner, species assumed): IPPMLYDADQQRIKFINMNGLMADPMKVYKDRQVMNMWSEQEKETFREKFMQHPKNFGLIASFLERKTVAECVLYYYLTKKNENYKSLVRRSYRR
IC50 [1],IC50 [2],IC50 [3],IC50 [5],other results,Structure (SMILES)
598 nM,456 nM,,,,"CCOc1ccnc(N(CCCCCCC(=O)NO)c2ccccn2)c1 [Example 17, 7-[(4-Ethoxy-pyridin-2-yl)-pyridin-2-yl-amino]-heptanoic acid hydroxyamide]"
298 nM,39 nM,,,,"Nc1ccc(-c2ccnc(N(CCCCCCC(=O)NO)c3ccccn3)c2)cc1 [Example 22, 7-{[4-(4-Amino-phenyl)-pyridin-2-yl]-pyridin-2-yl-amino}-heptanoic acid hydroxyamide]"
2490 nM,2340 nM,,,,"O=C(CCCCCN(c1ccccn1)c1ccccn1)NO [Example 2, 6-(Dipyridin-2-ylamino)-N-hydroxyhexanamide]"
337 nM,169 nM,64 nM,2 nM,IC50 [4]: 145 nM; IC50 [6]: 306 nM,"O=C(CCCCCCN(c1ccccn1)c1cc2ccccc2cn1)NO [Example 14, 7-(Isoquinolin-3-yl-pyridin-2-yl-amino)-heptanoic acid hydroxyamide]"
337 nM,697 nM,453 nM,31 nM,IC50 [4]: 759 nM; IC50 [6]: 1140 nM,"Cc1ccc(N(CCCCCCC(=O)NO)c2ccccn2)nc1 [Example 9, N-Hydroxy-7-((5-methylpyridin-2-yl)(pyridin-2-yl)amino)heptanamide]"
1620 nM,200 nM,,,,"Cc1ccccc1-c1ccnc(N(CCCCCCC(=O)NO)c2ccccn2)c1 [Example 24, 7-[Pyridin-2-yl-(4-o-tolyl-pyridin-2-yl)-amino]-heptanoic acid hydroxyamide]"
1680 nM,81 nM,,,,"Cc1cccc(-c2ccnc(N(CCCCCCC(=O)NO)c3ccccn3)c2)c1 [Example 27, 7-[Pyridin-2-yl-(4-m-tolyl-pyridin-2-yl)-amino]-heptanoic acid hydroxyamide]"
1070 nM,285 nM,182 nM,57 nM,,"O=C(CCCCCCN(c1ccccn1)c1ccc(OCc2ccccc2)cn1)NO [Example 10, 7-((5-(Benzyloxy)pyridin-2-yl)(pyridin-2-yl)amino)-N-hydroxyheptanamide]"
406 nM,292 nM,182 nM,13 nM,IC50 [4]: 759 nM; IC50 [6]: 883 nM,"COc1ccc(N(CCCCCCC(=O)NO)c2ccccn2)nc1 [Example 11, N-Hydroxy-7-((5-methoxypyridin-2-yl)(pyridin-2-yl)amino)heptanamide]"
,200 nM,,,,"O=C(CCCCCCN(c1ccccn1)c1cc(-c2ccccc2F)ccn1)NO [Example 26, 7-{[4-(2-Fluoro-phenyl)-pyridin-2-yl]-pyridin-2-yl-amino}-heptanoic acid hydroxyamide]"
,445 nM,,,,O=C(CCCCCCC(c1ccccn1)c1ccccn1)NO [Example 6]
326 nM,478 nM,,,,"CC(C)Oc1ccnc(N(CCCCCCC(=O)NO)c2ccccn2)c1 [Example 19, 7-[(4-Isopropoxy-pyridin-2-yl)-pyridin-2-yl-amino]heptanoic acid hydroxyamide]"
81 nM,,71 nM,16 nM,IC50 [7]: 123 nM; IC50 [8]: 62 nM; IC50 [9]: 545 nM; IC50 [10]: 126 nM; IC50 [4]: 90 nM; IC50 [6]: 212 nM; IC50 [11]: 112 nM; IC50 [12]: 312 nM,"O=C(CCCCCCN(c1ccccn1)c1ccc2ccccc2n1)NO [Example 4, N-Hydroxy-7-(pyridin-2-yl(quinolin-2-yl)amino)heptanamide]"
1080 nM,210 nM,,,,"O=C(CCCCCCN(c1ccccn1)c1cc(-c2ccccc2Cl)ccn1)NO [Example 25, 7-{[4-(2-Chloro-phenyl)-pyridin-2-yl]-pyridin-2-yl-amino}-heptanoic acid hydroxyamide]"
1060 nM,77 nM,,,,"Cc1ccc(-c2ccnc(N(CCCCCCC(=O)NO)c3ccccn3)c2)cc1 [Example 23, 7-[Pyridin-2-yl-(4-p-tolyl-pyridin-2-yl)-amino]-heptanoic acid hydroxyamide]"
245 nM,,,9 nM,IC50 [8]: 710 nM; IC50 [9]: 307 nM; IC50 [13]: 100 nM; IC50 [6]: 1540 nM,"O=C(CCCCCCN(c1ccccn1)c1ccccn1)NO [Example 3, 7-(Dipyridin-2-ylamino)-N-hydroxyheptanamide]"
950 nM,600 nM,158 nM,68 nM,,"O=C(CCCCC=C(c1ccccn1)c1ccccn1)NO [Example 1, N-Hydroxy-7,7-di(pyridin-2-yl)hept-6-enamide]"
1080 nM,,,,,"O=C(CCCCCCN(c1ccccn1)c1cc(-c2ccc(F)cc2)ccn1)NO [Example 21, 7-{[4-(4-Fluoro-phenyl)-pyridin-2-yl]-pyridin-2-yl-amino}-heptanoic acid hydroxyamide]"
415 nM,,642 nM,22 nM,,"O=C(CCCCCC=C(c1ccccn1)c1ccccn1)NO [Example 5, N-Hydroxy-8,8-di(pyridin-2-yl)oct-7-enamide]"
493 nM,1050 nM,116 nM,19 nM,,"O=C(CCCCCCN(c1ccccn1)c1cc(-c2ccccc2)ccn1)NO [Example 8, N-Hydroxy-7-((4-phenylpyridin-2-yl)(pyridin-2-yl)amino)heptanamide]"
778 nM,448 nM,,,,"Cc1ccnc(N(CCCCCCC(=O)NO)c2ccccn2)c1 [Example 7, N-Hydroxy-7-((4-methylpyridin-2-yl)(pyridin-2-yl)amino)heptanamide]"
521 nM,357 nM,,,,"O=C(CCCCCCN(c1ccccn1)c1ccc(-c2ccc(F)cc2)cn1)NO [Example 13, 7-((5-(4-Fluorophenyl)pyridin-2-yl)(pyridin-2-yl)amino)-N-hydroxyheptanamide]"
1080 nM,1090 nM,,,,"COc1ccnc(N(CCCCCCC(=O)NO)c2ccccn2)c1 [Example 16, 7-[(4-Methoxy-pyridin-2-yl)-pyridin-2-yl-amino]-heptanoic acid hydroxyamide]"
539 nM,,,,,"O=C(CCCCCCN(c1cccnc1)c1ccccn1)NO [Example 20, 7-(Pyridin-3-yl-pyridin-2-yl-amino)-heptanoic acid hydroxyamide]"
310 nM,81 nM,,,,"O=C(CCCCCCN(c1ccccn1)c1ccc(-c2ccccc2)cn1)NO [Example 12, N-Hydroxy-7-((5-phenylpyridin-2-yl)(pyridin-2-yl)amino)heptanamide]"
1260 nM,411 nM,151 nM,3 nM,IC50 [4]: 423 nM; IC50 [6]: 612 nM,"O=C(CCCCCCN(c1ccccn1)c1cc(OCc2ccccc2)ccn1)NO [Example 15, 7-[(4-Benzyloxy-pyridin-2-yl)-pyridin-2-yl-amino]-heptanoic acid hydroxyamide]"
822 nM,574 nM,,,,"CCCOc1ccnc(N(CCCCCCC(=O)NO)c2ccccn2)c1 [Example 18, 7-[(4-Propoxy-pyridin-2-yl)-pyridin-2-yl-amino]-heptanoic acid hydroxyamide]"
